Measurements published in PubChem BioAssay AID1902 (Broad Institute, 2009).
pEC50: −log10 of the molar value. Active and inactive are the calls of the source.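 The calls were made as follows: active = EC50 no more than a set limit of log units above the highest dose; inactive = the rest.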

The compounds below were run against S. pyogenes SKKanGAS, kanamycin survival, BacTiterGlo, 6 h (assay: SKKanGAS survival reduction under kanamycin, dose response, streptokinase promoter inhibitor project, SKKanGAS strain, luminescence, dose confirmation (AID 1902);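 also: lower survival reflects blocked streptokinase promoter driving kanamycin resistance gene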).
In the case of `COc1ccc(CNCC(O)(c2ccc(Cl)cc2)c2ccc(Cl)cc2)cc1`, the pEC50 was 5.45.
`CCn1cnc2sc(C(=O)Oc3cccc(C)c3)c(C)c2c1=O` showed a pEC50 of 5.39.
`COc1ccc(Cl)cc1C(=O)NNC(=S)NC(=O)c1cc(-c2ccccc2)nc2ccccc12` gave a pEC50 of 7.09.
In the case of `COc1cccc(N=Nc2ccc3cccnc3c2O)c1`, the pEC50 was > 7.22.
With `Cc1ccnn2c(-c3ccccc3)c3c(=O)n(C)c(=O)n(C)c3c12` the EC50 was > 15 µM (inactive).
`S=C(NCCSCc1ccc(Cl)cc1Cl)Nc1ccccc1` showed a pEC50 of 5.14.
Compound `CCOc1cc(/C=C\[N+](=O)[O-])ccc1OCC(=O)Nc1ccccc1C` has a pEC50 of 5.02.
`Fc1cccc2sc(Nc3nnc(-c4ccccc4)o3)nc12` gave a pEC50 of 6.08.
`COc1ccc(C(=O)NC(=S)NNC(=O)c2ccccc2O)cc1` gave a pEC50 of 5.84.
`CCOC(=O)c1sc(NC(=O)c2cc(-c3ccccc3C)nc3ccccc23)c(C#N)c1C` showed a pEC50 of 5.87.
With `CC(C)C1O/C(=N/C(=O)Nc2ccc(Cl)c(Cl)c2)NC1=O` (stereo unspecified) the pEC50 was 5.60.
For `COc1cc(NC(=O)c2cc3nc(-c4ccccc4)cc(-c4ccccc4)n3n2)cc(OC)c1OC`, the pEC50 was 5.00.
With `CCOc1cccc(N(C(=O)c2ccco2)C(C(=O)NC2CCCC2)c2cccnc2)c1` (stereo unspecified) the EC50 was > 15 µM (inactive).
In the case of `CC(C)(C)c1ccc(CSc2cnn(C(C)(C)C)c(=O)c2Cl)cc1`, the pEC50 was 5.30.
For `COc1ccc2cc3c(N)nn(C(=O)C4CCC(C(C)(C)C)CC4)c3nc2c1` (stereo unspecified), the pEC50 was 5.71.
In the case of `O=C1C=C(Nc2ccccc2)c2ccccc2C1=O`, the pEC50 was 5.61.
`COc1cccc(/C=N/n2c(N)nc3ccccc32)c1OC` was tested, and the pEC50 was 5.23.
In the case of `Cc1onc(-c2ccccc2)c1C(=O)NNC(=S)NC(=O)c1ccc2c(c1)OCO2`, the pEC50 was 6.23.
`Cc1cc(C)cc(-n2c(C)cc(/C=C3\C(=N)N4N=C(CC(C)C)SC4=NC3=O)c2C)c1` was tested, and the pEC50 was 5.57.
In the case of `c1ccc(CNc2nc(-c3ccccn3)nc3ccccc23)cc1`, the pEC50 was 6.38.
Work on `Oc1nc(Nc2ccccc2)sc1/C=C1\C=Nc2ccccc21` yielded a pEC50 of 5.04.
In the case of `COc1ccc(-n2nc3cc(C)c(NC(=O)C(C)C)cc3n2)cc1`, the EC50 was > 15 µM (inactive).
`CCN(c1ccc(OC)cc1)S(=O)(=O)c1nnc(NC(=O)c2ccccc2Cl)s1` was tested, and the pEC50 was 5.48.
With `CC(=O)Nc1ccc(S(=O)(=O)N2CCN=C2SCc2ccc(C)cc2)cc1` the EC50 was > 15 µM (inactive).
`C[C@@H](C[C@@H](O)[C@H](O)C(C)(C)O)[C@@H]1CC[C@]2(C)C3=CC[C@H]4C(C)(C)C(=O)CC[C@]4(C)[C@H]3CC[C@@]12C` showed a pEC50 of 5.61.
`O=c1c2ccccc2sn1-c1ccccc1` showed a pEC50 of 5.95.
`CCN1/C(=C\c2ccc3cc(C)ccc3[n+]2CC)Sc2cc(C)c(C)cc21` gave a pEC50 of 5.37.
For `Cc1ccccc1Nc1c(-c2ccccn2)nc2c(C)cccn12`, the pEC50 was 6.40.
For `Cc1cccc(-c2oc3ccccc3c2-c2ccc3c(c2)OCO3)c1`, the pEC50 was 5.44.
In the case of `COc1ccccc1C(=O)NNC(=S)NC(=O)c1cc(OC)c(OC)c(OC)c1`, the pEC50 was 6.01.
In the case of `Fc1ccc(-[n+]2nc(Nc3ccccc3)sc2-c2c3ccccc3cc3ccccc23)cc1`, the pEC50 was 5.23.
`CCn1c(=O)c(C(=O)NNC(=O)c2ccc(Cl)cc2Cl)c(O)c2ccccc21` gave a pEC50 of 5.70.
In the case of `CCCCCCCCCCOC(=O)Cn1c(COc2ccccc2OC)[n+](C)c2ccccc21`, the pEC50 was 5.14.
`Cc1ccc(-c2cc3nc(-c4ccc(Br)cc4)cc(N)n3n2)cc1` showed a pEC50 of 6.25.
Compound `CCn1c(=O)c(C(=O)NNC(=O)Cc2ccccc2)c(O)c2ccccc21` has a pEC50 of 5.33.
With `Clc1ccc(-[n+]2c(-c3cccc(Br)c3)[nH]c3nc4ccccc4nc32)cc1` the pEC50 was 5.78.
`Cc1cc(SCC(=O)N/N=C/c2ccc(O)c(O)c2O)c(C)cc1Br` gave a pEC50 of 5.51.
For `O=C(/C(=N\Nc1ccc([N+](=O)[O-])cc1)Sc1nnnn1-c1ccccc1)c1ccccc1`, the pEC50 was 5.26.
`O=C(N/N=C/c1cc(Cl)cc([N+](=O)[O-])c1O)c1ccccc1NS(=O)(=O)c1cccs1` gave a pEC50 of 4.92.
With `O=C(O)c1ccc(N/N=C/c2ccc(-c3cccc(Cl)c3)o2)cc1` the pEC50 was 5.21.
`CC1C/C(=N\NC(=S)NCc2ccccc2)CC(C)(C)C1` (stereo unspecified) gave a pEC50 of 5.40.
`Cc1nc2c(C(=O)NCc3ccc4c(c3)OCO4)cnn2c(C)c1Cc1ccc(F)cc1Cl` showed a pEC50 of 4.83.
With `CCCCn1c(CCCNC(=O)c2ccco2)nc2ccccc21` the EC50 was > 15 µM (inactive).
For `NC(=S)N/N=C\c1c(OCc2ccccc2Cl)ccc2ccccc12`, the pEC50 was 5.60.
Work on `O=C(NC(c1ccc(Cl)cc1)c1cc(Cl)c2cccnc2c1O)c1cccnc1` (stereo unspecified) yielded a pEC50 of 6.56.
`Cc1ccc(/C=C2/Sc3ccc(C(=O)N4CCN(C)CC4)cc3NC2=O)cc1` gave a pEC50 of 4.87.
With `N#Cc1ccc(Cl)cc1NC(=O)CSc1nc2nc(-c3cccs3)cc(C(F)(F)F)c2c(=O)[nH]1` the pEC50 was 5.30.
`CCCCCn1c(N)c(-c2nc3ccccc3s2)c2c([N+](=O)[O-])nn(CC)c(=O)c21` was tested, and the pEC50 was 5.09.
With `CO[C@H]1C=CO[C@@]2(C)Oc3c(C)c(O)c4c(O)c(c5c(nc6cc(C)ccn65)c4c3C2=O)NC(=O)C(C)=CC=C[C@H](C)[C@H](O)[C@@H](C)[C@@H](O)[C@@H](C)[C@H](OC(C)=O)[C@@H]1C` the pEC50 was > 7.22.
For `Oc1c(C(Nc2nc3ccccc3s2)c2ccco2)ccc2cccnc12` (stereo unspecified), the pEC50 was 5.53.
Compound `O=C(CNc1ccc(F)cc1)N/N=C/c1c(O)ccc2ccccc12` has a pEC50 of 5.95.
With `COc1ccc(OC)c(NC(=O)NC2CCCc3ccccc32)c1` (stereo unspecified) the EC50 was > 15 µM (inactive).
With `O=C(Nc1ccccc1)c1nnsc1S(=O)c1ccc(Cl)cc1` (stereo unspecified) the pEC50 was 5.87.
In the case of `CC(C)C[C@H](NC(=O)c1nc[nH]c1C(=O)NCc1ccccc1)C(=O)OCc1ccccc1`, the pEC50 was 5.30.
`CCN(CC(=O)NCC1CCCO1)S(=O)(=O)c1ccc(Cl)cc1` (stereo unspecified) was tested, and the EC50 was > 15 µM (inactive).
Compound `Cc1ccc(OCCSc2nc(NC(C)C)nc(NC(C)C)n2)cc1` has a pEC50 of 5.36.
`COc1ccc(N2CCN(C(=O)Cc3csc(NC(=O)Nc4ccccc4OC)n3)CC2)cc1` gave a pEC50 of 4.90.
`COc1cccc(-c2nc(NC3CCCC3)c3ccccc3n2)c1O` gave a pEC50 of 5.23.
Compound `Cc1ccccc1C(=O)Oc1cccc(Nc2ncnc3ccccc23)c1` has a pEC50 of 5.45.
`Cc1cc(C)c2c(c1)NC(c1cc3c(cc1Br)OCO3)C1CC=CC21` (stereo unspecified) was tested, and the pEC50 was 5.09.
`COc1ccc(Cc2[nH]n3c(=O)cc(C(C)C)nc3c2-c2ccccc2)cc1` showed a pEC50 of 5.63.
`CCOC(=O)c1cccnc1SCC(=O)NC(C)CC` (stereo unspecified) was tested, and the EC50 was > 15 µM (inactive).
For `O=C(Nc1ccccc1C(=O)Nc1nnc(C(F)(F)F)s1)c1ccccc1Cl`, the pEC50 was 5.87.
`c1ccc(-c2cc(-c3ccncc3)nc3ccc4ccccc4c23)cc1` showed a pEC50 of 5.66.
In the case of `CCCOc1ccc(-c2nc(OC)c3ccccc3n2)cc1`, the EC50 was > 15 µM (inactive).
`C/C(=N\NC(=O)c1cccc2ccccc12)c1ccccn1` gave a pEC50 of 5.49.
With `O=C(O)c1ccc(N/N=C/c2ccc(OC(=O)c3ccccc3Cl)cc2)cc1` the pEC50 was 5.30.
With `Cc1cccc(OCCCCc2c(C)n[nH]c2C)c1C` the pEC50 was 5.32.
For `COc1cc(C(=O)NC(=S)Nc2ccc(NC(=O)c3ccco3)cc2)cc(OC)c1OC`, the pEC50 was 5.05.
Compound `O=c1c2c(nc(NCCO)n1CC1CCCCC1)-c1ccccc1CC21CCCC1` has a pEC50 of 5.38.
Compound `Nc1nc(-c2ccccn2)nc(N)c1Cc1ccc(Cl)cc1Cl` has a pEC50 of 5.30.
Compound `Cc1cc(Nc2ccccc2)n(-c2nc3ccccc3[nH]2)n1` has a pEC50 of 5.68.
For `CCc1cc2c(COC(=O)c3cccc(NS(C)(=O)=O)c3)cc(=O)oc2cc1O`, the pEC50 was 5.11.
With `Cc1cc(NC(=O)CN2C(=O)c3ccccc3C2=O)no1` the EC50 was > 15 µM (inactive).
`COC(=O)C1(C(C[N+](=O)[O-])c2ccc(C)cc2)C(=O)NCC1c1ccco1` (stereo unspecified) was tested, and the pEC50 was 5.13.
Compound `Cc1cc2c(cc1C)-c1c(ssc1=Nc1ccc(S(N)(=O)=O)cc1)C(C)(C)N2` has a pEC50 of 4.93.
`Cc1cccc2sc(NNC(=O)c3ccc(S(=O)(=O)N4CCCC(C)C4)cc3)nc12` (stereo unspecified) was tested, and the pEC50 was 6.51.
With `CCCOC(=O)c1ccc(Oc2c(-c3ccc(OC)cc3O)n[nH]c2C)cc1` the pEC50 was 4.87.
`N=C1/C(=C\c2ccc(-c3cccc(C(=O)O)c3)o2)C(=O)N=C2SC=C(c3ccccc3)N12` was tested, and the pEC50 was 5.92.
With `CC(C)[C@@H](C(=O)NC1CCCC1)N1C(=O)N2CCc3c([nH]c4ccccc34)[C@@]2(C)C1=O` the EC50 was > 15 µM (inactive).
With `O=C(Nc1nc(-c2ccccn2)cs1)c1ccc(S(=O)(=O)N2CCCCC2)cc1` the pEC50 was 5.83.
With `COc1ccc(-c2cn[nH]c2-c2ccc(OCc3ccccc3)cc2O)cc1` the pEC50 was 5.62.
`CCCCC(CC)C(=O)Oc1ccc(O)c(C(C)(C)C)c1` (stereo unspecified) gave a pEC50 of 5.54.
With `Cc1ccc(C(c2cc(Cl)c3cccnc3c2O)N2CCN(C)CC2)cc1` (stereo unspecified) the pEC50 was 5.73.
`Cc1ccc(S(=O)(=O)Nc2cccc3ncccc23)s1` showed a pEC50 of 5.54.
With `C/C(=N\N=C(/N)SC1CC(=O)N(c2ccc(Cl)c(Cl)c2)C1=O)c1cccs1` (stereo unspecified) the pEC50 was 5.67.
With `CC(=O)C1=C(c2ccc(Br)cc2)C(=O)c2ccccc2C1=O` the pEC50 was 5.84.
In the case of `O=S(=O)(Nc1nc2ccccc2nc1Cl)c1ccc2ccccc2c1`, the EC50 was > 5 µM (inactive).
`CC(C)=CCc1c(-c2ccc(O)cc2O)oc2cc3c(c(O)c2c1=O)C=CC(C)(C)O3` gave a pEC50 of 5.80.
Compound `O=C(Nc1nnc(C2=COCCO2)o1)c1cccc(F)c1` has a pEC50 of 5.62.
`Cc1ccc(NC(=S)NC2CCSc3ccccc32)cc1C` (stereo unspecified) gave a pEC50 of 5.33.
With `Fc1ccccc1CNc1ccc(Cl)c(Cl)c1` the pEC50 was 4.81.
With `Cc1ccc(S(=O)(=O)N2c3ccccc3OCC2C(C)(C)C)cc1` (stereo unspecified) the pEC50 was 5.59.
`COc1cccc(-c2nn(-c3ccccc3)cc2C(=O)Nc2nccs2)c1` showed a pEC50 of 5.53.
`COc1cc(/C(C)=C/c2ccccc2)c2c(c1)oc1ccccc12` gave a pEC50 of 5.39.
In the case of `N#CC(C(=O)C12CC3CC(CC(C3)C1)C2)c1nc2ccccc2[nH]1` (stereo unspecified), the pEC50 was 5.49.
In the case of `CC1(C)CC(=O)C2=C(C1)N=C1c3ccccc3C(=O)C1C2c1ccc(Cl)cc1` (stereo unspecified), the pEC50 was 5.09.
`OC1(C#Cc2c(-c3ccsc3)oc3ccc(N4CCOCC4)cc23)CCCCC1` gave a pEC50 of 5.44.
For `Cc1ccc(/C=C/C(=O)c2ccc([N+](=O)[O-])o2)cc1`, the pEC50 was 5.28.
In the case of `CCCCCCCCCCOC(=O)Cn1c(COc2ccc(C)cc2)[n+](C)c2ccccc21`, the pEC50 was 5.25.
For `NNC(=O)/C(=N/Nc1ccccc1)S(=O)(=O)c1ccc(Cl)cc1`, the pEC50 was 5.09.
With `Cc1[nH]c2ccccc2c1C(c1ccccn1)c1c(C)[nH]c2ccccc12` the pEC50 was 5.06.
Compound `C/C(CC(=O)Nc1ccc(Cl)c(C(F)(F)F)c1)=N\NC(=O)c1cc2ccccc2cc1O` has a pEC50 of 5.80.
In the case of `O=C(c1ccc(Cl)cc1)c1cnc(Nc2ccccc2Cl)s1`, the pEC50 was 5.17.
Compound `Oc1ccc(/C=C/c2ccc3cccc(O)c3n2)cc1Br` has a pEC50 of 5.98.
In the case of `Cn1c(C(=O)N2CCN(c3ccc([N+](=O)[O-])cc3)CC2)cc2c(=O)[nH]c3ccccc3c21`, the pEC50 was 5.34.
